Measured values published in PubChem BioAssay (NCI).
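Abbreviation: GI50, concentration required for 50% inhibition of growth. The concentration for full growth arrest is given as TGI.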

Columns and labels:
Experiment in all cases: inhibition of tumour cell growth, NCI panel, 384-well format
[1] = system: SF-268 CNS
[2] = system: OVCAR-8 ovarian
[3] = system: SNB-19 CNS
[4] = system: NCI-H460 NSCLC
[5] = system: SR leukemia
[6] = system: SK-OV-3 ovarian
[7] = system: BT-549 breast
[8] = system: M14 melanoma
[9] = system: 786-0 renal
[10] = system: UACC-62 melanoma
[11] = system: HOP-92 NSCLC
[12] = system: PC-3 prostate
[13] = system: COLO 205 colon
[14] = system: KM12 colon
[15] = system: UO-31 renal
[16] = system: IGROV1 ovarian
[17] = system: TK-10 renal
[18] = system: HCC-2998 colon
[19] = system: DU-145 prostate
[20] = system: NCI-H522 lung
[21] = system: HS 578T breast
[22] = system: NCI/ADR-RES ovarian
[23] = system: NCI-H23 lung
[24] = system: MDA-MB-231 breast
[25] = system: SW-620 colon
[26] = system: HT29 colon
[27] = system: U251 glioblastoma
[28] = system: LOX IMVI melanoma
[29] = system: HCT-15 colon
[30] = system: HL-60(TB) leukemia
[31] = system: MALME-3M melanoma
[32] = system: SNB-75 CNS
[33] = system: OVCAR-3 ovarian
[34] = system: HCT-116 colon
[35] = system: OVCAR-5 ovarian
[36] = system: MDA-MB-435 melanoma
[37] = system: SF-295 CNS
[38] = system: UACC-257 melanoma
[39] = system: NCI-H226 lung
[40] = system: NCI-H322M lung
[41] = system: A549 NSCLC
[42] = system: RPMI-8226 leukemia
[43] = system: HOP-62 NSCLC
[44] = system: MDA-MB-468 breast
[45] = system: RXF 393 renal
[46] = system: T-47D breast
[47] = system: SK-MEL-2 melanoma
[48] = system: CCRF-CEM leukemia
[49] = system: SK-MEL-5 melanoma
[50] = system: SN12C renal
[51] = system: MCF7 breast
[52] = system: CAKI-1 renal
[53] = system: ACHN renal
[54] = system: OVCAR-4 ovarian
[55] = system: EKVX NSCLC
[56] = system: SF-539 CNS
[57] = system: A498 renal
[58] = system: MOLT-4 leukemia
[59] = system: SK-MEL-28 melanoma

O=C(Nc1ccc(OC(F)(F)Cl)cc1)c1cnc(N2CC[C@@H](O)C2)c(-c2ccn[nH]2)c1
GI50 [1]: 10.6 µM
TGI [1]: 23.4 µM
GI50 [2]: 6.65 µM
TGI [2]: 19.5 µM
GI50 [3]: 14.5 µM
TGI [3]: 27.9 µM
GI50 [4]: 3.95 µM
TGI [4]: 13.3 µM
GI50 [5]: 1.94 µM
TGI [5]: 4.74 µM
GI50 [6]: 16 µM
TGI [6]: 30.7 µM
GI50 [7]: 14.8 µM
TGI [7]: 28.2 µM
GI50 [8]: 10.5 µM
TGI [8]: 22.9 µM
GI50 [9]: 5.38 µM
TGI [9]: 17.2 µM
GI50 [10]: 11.6 µM
TGI [10]: 23.9 µM
GI50 [11]: 13.7 µM
TGI [11]: 26.8 µM
GI50 [12]: 13.6 µM
TGI [12]: 26.8 µM
GI50 [13]: 5.01 µM
TGI [13]: 16.6 µM
GI50 [14]: 4.57 µM
TGI [14]: 15.4 µM
GI50 [15]: 11.6 µM
TGI [15]: 24.2 µM
GI50 [16]: 10.9 µM
TGI [16]: 23.6 µM
GI50 [17]: 10.8 µM
TGI [17]: 26.4 µM
GI50 [18]: 2.85 µM
TGI [18]: 8.48 µM
GI50 [19]: 17.7 µM
TGI [19]: 32.8 µM
GI50 [20]: 11.7 µM
TGI [20]: 24.3 µM
GI50 [21]: 12.6 µM
TGI [21]: 25.3 µM
GI50 [22]: 19.3 µM
TGI [22]: 41.9 µM
GI50 [23]: 12.3 µM
TGI [23]: 25.9 µM
GI50 [24]: 10.4 µM
TGI [24]: 22.5 µM
GI50 [25]: 7.75 µM
TGI [25]: 19.7 µM
GI50 [26]: 2.57 µM
TGI [26]: 6.27 µM
GI50 [27]: 7.26 µM
TGI [27]: 20 µM
GI50 [28]: 7.26 µM
TGI [28]: 20.2 µM
GI50 [29]: 2.94 µM
TGI [29]: 10.9 µM
GI50 [30]: 2.77 µM
TGI [30]: 6.75 µM
GI50 [31]: 6.97 µM
TGI [31]: 20.5 µM
GI50 [32]: 7.86 µM
TGI [32]: 20.9 µM
GI50 [33]: 11.1 µM
TGI [33]: 23.3 µM
GI50 [34]: 10.9 µM
TGI [34]: 23.7 µM
GI50 [35]: 12.1 µM
TGI [35]: 25.7 µM
GI50 [36]: 12 µM
TGI [36]: 24.8 µM
GI50 [37]: 11.1 µM
TGI [37]: 23.2 µM
GI50 [38]: 9.12 µM
TGI [38]: 22.5 µM
GI50 [39]: 4.76 µM
TGI [39]: 17 µM
GI50 [40]: 12.3 µM
TGI [40]: 25.1 µM
GI50 [41]: 13.3 µM
TGI [41]: 29.7 µM
GI50 [42]: 3.27 µM
TGI [42]: 12.2 µM
GI50 [43]: 9.4 µM
TGI [43]: 22.7 µM
GI50 [44]: 3.89 µM
TGI [44]: 15 µM
GI50 [45]: 3.84 µM
TGI [45]: 14.1 µM
GI50 [46]: 2.97 µM
TGI [46]: 10.7 µM
GI50 [47]: 15.4 µM
TGI [47]: 28.8 µM
GI50 [48]: 3.01 µM
TGI [48]: 10.6 µM
GI50 [49]: 4.81 µM
TGI [49]: 17.2 µM
GI50 [50]: 13.7 µM
TGI [50]: 26.8 µM
GI50 [51]: 9.56 µM
TGI [51]: 21.9 µM
GI50 [52]: 8.07 µM
TGI [52]: 21.1 µM
GI50 [53]: 12.1 µM
TGI [53]: 29.4 µM
GI50 [54]: 6.92 µM
TGI [54]: 26.9 µM
GI50 [55]: 14 µM
TGI [55]: 28.8 µM
GI50 [56]: 10.1 µM
TGI [56]: 22.5 µM
GI50 [57]: 13.6 µM
TGI [57]: 26.8 µM
GI50 [58]: 5.82 µM
TGI [58]: 18.3 µM
GI50 [59]: 15 µM
TGI [59]: 28.5 µM
